Measured values: ChEMBL document CHEMBL3436046, “Predictive model for L-type channel inhibition: multichannel block in QT prolongation risk assessment” (J Appl Toxicol, 2012)

Experiments:
[1] = biological target: T1, Voltage-dependent L-type calcium channel subunit alpha-1C (Rattus norvegicus, UniProt P22002); experiment: (§1) Inhibition of L-type calcium channel measured using whole-cell patch clamp in rat ventricular myocytes; type: functional, cell-based, Heart, Ventricular myocyte; design: ca sol conc 1 mM, temp 20-24 C
T1 sequence (P22002 whole entry): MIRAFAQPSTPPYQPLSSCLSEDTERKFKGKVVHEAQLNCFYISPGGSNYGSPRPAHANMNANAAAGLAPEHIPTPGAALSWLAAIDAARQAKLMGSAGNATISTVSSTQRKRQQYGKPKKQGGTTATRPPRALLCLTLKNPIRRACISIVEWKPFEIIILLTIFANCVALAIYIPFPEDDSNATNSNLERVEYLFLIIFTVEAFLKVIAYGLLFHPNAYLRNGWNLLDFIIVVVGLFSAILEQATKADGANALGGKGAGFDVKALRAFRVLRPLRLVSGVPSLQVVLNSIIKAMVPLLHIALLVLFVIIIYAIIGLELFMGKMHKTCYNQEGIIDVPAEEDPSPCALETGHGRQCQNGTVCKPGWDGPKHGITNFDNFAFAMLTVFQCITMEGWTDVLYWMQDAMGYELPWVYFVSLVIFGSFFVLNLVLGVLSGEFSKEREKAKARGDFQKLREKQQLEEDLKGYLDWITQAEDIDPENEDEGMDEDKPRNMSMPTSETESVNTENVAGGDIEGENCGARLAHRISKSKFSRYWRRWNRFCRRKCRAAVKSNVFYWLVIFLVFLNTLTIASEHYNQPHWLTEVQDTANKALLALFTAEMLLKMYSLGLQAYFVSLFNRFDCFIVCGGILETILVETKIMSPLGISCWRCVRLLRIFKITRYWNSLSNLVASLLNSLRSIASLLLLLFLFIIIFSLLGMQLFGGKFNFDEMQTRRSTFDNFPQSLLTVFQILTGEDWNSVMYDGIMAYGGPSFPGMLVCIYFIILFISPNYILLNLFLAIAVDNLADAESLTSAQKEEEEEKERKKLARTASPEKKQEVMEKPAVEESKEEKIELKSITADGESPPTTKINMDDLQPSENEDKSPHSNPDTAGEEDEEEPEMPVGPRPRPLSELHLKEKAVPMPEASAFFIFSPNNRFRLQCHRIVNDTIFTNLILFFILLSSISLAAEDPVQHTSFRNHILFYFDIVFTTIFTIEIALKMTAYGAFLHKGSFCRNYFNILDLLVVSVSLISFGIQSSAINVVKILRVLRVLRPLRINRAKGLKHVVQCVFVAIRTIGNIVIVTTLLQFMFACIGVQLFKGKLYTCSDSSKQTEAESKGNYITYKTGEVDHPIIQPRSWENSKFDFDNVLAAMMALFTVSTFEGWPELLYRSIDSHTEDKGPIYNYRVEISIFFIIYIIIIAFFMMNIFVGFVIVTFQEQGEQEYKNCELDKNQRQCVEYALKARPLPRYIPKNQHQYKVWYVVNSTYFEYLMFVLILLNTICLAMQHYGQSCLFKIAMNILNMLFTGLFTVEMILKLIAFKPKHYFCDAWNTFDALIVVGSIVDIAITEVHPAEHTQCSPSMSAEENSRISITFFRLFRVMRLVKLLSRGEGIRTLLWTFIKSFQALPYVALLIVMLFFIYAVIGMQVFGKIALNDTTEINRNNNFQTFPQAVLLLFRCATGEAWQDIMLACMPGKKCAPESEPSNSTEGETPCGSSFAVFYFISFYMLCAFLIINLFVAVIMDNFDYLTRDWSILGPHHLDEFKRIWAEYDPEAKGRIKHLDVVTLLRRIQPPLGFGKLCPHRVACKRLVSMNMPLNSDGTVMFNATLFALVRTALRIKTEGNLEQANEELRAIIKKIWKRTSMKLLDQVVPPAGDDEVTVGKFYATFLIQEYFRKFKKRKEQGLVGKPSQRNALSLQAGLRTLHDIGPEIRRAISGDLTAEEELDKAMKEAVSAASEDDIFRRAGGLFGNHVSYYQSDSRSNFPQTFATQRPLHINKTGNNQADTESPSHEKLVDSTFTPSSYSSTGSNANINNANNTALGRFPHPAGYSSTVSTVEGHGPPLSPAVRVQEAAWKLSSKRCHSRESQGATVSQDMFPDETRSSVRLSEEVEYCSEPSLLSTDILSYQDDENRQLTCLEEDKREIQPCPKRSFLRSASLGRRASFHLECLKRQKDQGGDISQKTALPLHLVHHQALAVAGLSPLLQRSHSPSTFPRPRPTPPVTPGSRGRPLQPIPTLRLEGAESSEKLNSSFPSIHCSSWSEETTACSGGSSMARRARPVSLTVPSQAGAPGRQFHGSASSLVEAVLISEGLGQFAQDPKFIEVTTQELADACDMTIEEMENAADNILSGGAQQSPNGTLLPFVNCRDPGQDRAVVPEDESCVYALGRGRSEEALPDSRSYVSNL

[2] = biological target: T2, Voltage-dependent L-type calcium channel subunit alpha-1C (Cavia porcellus, UniProt O35505); experiment: (§2) Inhibition of L-type calcium channel measured using whole-cell patch clamp in guinea pig ventricular myocytes; type: functional, cell-based, Heart, Ventricular myocyte; design: ca sol conc 1.8 mM, temp 36-37 C
[3] = biological target: T1, Voltage-dependent L-type calcium channel subunit alpha-1C; experiment: as §1; type: functional, cell-based, Heart, Ventricular myocyte; design: ca sol conc 1.8 mM, temp 21-23 C
[4] = biological target: T3, Voltage-dependent L-type calcium channel subunit alpha-1C (Homo sapiens, UniProt Q13936); experiment: (§3) Inhibition of L-type calcium channel measured using […] kidney cells heterologically expressing alpha-1C subunit; type: functional, cell-based, HEK293; design: ca sol conc 0 mM, temp 20-25 C
T3 sequence (Q13936 whole entry): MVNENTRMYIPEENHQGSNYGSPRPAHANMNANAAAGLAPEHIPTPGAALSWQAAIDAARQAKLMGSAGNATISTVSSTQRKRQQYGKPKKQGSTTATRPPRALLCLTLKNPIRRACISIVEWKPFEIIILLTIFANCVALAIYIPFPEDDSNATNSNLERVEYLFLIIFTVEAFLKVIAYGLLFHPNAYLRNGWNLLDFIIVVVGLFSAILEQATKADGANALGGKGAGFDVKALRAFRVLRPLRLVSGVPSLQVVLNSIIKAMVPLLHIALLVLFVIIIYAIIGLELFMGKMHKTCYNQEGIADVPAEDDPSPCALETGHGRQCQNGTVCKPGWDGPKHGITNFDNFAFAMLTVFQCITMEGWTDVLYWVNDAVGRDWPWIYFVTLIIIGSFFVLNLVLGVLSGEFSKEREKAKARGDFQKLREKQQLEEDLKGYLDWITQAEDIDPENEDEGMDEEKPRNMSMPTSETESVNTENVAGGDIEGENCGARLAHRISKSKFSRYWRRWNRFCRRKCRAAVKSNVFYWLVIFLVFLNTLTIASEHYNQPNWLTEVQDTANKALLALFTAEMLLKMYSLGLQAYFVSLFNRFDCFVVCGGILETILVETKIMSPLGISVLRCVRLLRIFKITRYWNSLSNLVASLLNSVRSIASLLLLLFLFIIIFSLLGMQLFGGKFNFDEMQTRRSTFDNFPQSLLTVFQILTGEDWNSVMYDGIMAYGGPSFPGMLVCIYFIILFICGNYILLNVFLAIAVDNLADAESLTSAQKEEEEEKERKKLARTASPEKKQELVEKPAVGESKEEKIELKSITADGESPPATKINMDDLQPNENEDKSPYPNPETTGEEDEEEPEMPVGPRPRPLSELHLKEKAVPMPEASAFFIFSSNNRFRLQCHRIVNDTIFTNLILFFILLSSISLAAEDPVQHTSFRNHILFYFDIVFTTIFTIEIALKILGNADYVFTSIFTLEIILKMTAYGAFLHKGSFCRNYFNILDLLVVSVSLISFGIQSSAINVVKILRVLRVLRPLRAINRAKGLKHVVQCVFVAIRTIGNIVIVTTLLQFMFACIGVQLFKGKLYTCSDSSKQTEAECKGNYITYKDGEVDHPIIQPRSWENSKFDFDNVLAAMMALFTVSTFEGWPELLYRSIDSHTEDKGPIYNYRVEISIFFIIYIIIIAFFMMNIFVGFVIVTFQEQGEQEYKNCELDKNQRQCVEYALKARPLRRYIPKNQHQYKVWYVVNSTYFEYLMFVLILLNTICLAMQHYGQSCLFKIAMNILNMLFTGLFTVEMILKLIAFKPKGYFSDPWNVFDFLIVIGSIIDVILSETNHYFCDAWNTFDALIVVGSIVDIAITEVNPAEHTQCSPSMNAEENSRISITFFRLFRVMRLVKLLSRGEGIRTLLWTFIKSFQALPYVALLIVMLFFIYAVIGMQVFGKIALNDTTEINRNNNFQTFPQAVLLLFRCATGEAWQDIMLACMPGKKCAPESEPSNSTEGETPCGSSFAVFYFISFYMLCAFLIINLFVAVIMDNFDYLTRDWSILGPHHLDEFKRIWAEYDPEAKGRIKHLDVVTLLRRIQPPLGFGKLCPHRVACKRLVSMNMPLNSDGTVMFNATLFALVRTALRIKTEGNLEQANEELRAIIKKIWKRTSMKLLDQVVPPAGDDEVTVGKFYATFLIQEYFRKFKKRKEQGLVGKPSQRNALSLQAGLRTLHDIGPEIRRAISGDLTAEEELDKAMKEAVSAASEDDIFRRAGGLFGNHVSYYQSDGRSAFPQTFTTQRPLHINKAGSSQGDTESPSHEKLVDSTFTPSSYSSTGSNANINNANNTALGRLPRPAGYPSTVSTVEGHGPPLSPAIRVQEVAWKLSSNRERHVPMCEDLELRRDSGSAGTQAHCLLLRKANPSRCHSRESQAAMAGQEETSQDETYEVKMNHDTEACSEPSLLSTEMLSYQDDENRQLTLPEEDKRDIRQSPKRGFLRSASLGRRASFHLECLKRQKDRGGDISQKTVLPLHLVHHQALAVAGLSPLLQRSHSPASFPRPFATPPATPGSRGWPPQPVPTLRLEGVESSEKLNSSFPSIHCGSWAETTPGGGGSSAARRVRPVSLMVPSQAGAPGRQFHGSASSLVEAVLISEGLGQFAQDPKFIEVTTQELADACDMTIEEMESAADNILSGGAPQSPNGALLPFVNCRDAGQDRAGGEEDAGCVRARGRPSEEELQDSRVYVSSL

[5] = biological target: T3, Voltage-dependent L-type calcium channel subunit alpha-1C; experiment: as §3; type: functional, cell-based, HEK293; design: ca sol conc 0 mM, temp 21-24 C
[6] = biological target: T2, Voltage-dependent L-type calcium channel subunit alpha-1C; experiment: as §2; type: functional, cell-based, Heart, Ventricular myocyte; design: ca sol conc 1.8 mM, temp room
[7] = biological target: T1, Voltage-dependent L-type calcium channel subunit alpha-1C; experiment: as §1; type: functional, cell-based, Heart, Ventricular myocyte; design: ca sol conc 2 mM, temp room
[8] = biological target: T3, Voltage-dependent L-type calcium channel subunit alpha-1C; experiment: (§4) Inhibition of L-type calcium channel measured using 2-electrode voltage-clamp in Xenopus oocyte heterologically expressing alpha-1C subunit; type: functional, cell-based; design: ca sol conc 0 mM, temp room
[9] = biological target: T3, Voltage-dependent L-type calcium channel subunit alpha-1C; experiment: as §4; type: functional, cell-based; design: ca sol conc 0 mM, temp room; remark: listed apart in the source
[10] = biological target: T2, Voltage-dependent L-type calcium channel subunit alpha-1C; experiment: as §2; type: functional, cell-based, Heart, Ventricular myocyte; design: ca sol conc 1.8 mM, temp 32-33 C
[11] = biological target: T2, Voltage-dependent L-type calcium channel subunit alpha-1C; experiment: as §2; type: functional, cell-based, Heart, Ventricular myocyte; design: ca sol conc 0 mM, temp 20-25 C
[12] = biological target: T1, Voltage-dependent L-type calcium channel subunit alpha-1C; experiment: as §1; type: functional, cell-based, Heart, Ventricular myocyte; design: ca sol conc 1.8 mM, temp 22-24 C
[13] = biological target: T1, Voltage-dependent L-type calcium channel subunit alpha-1C; experiment: as §1; type: functional, cell-based, Heart, Ventricular myocyte; design: ca sol conc 2 mM, temp 22-23 C
[14] = biological target: T2, Voltage-dependent L-type calcium channel subunit alpha-1C; experiment: as §2; type: functional, cell-based, Heart, Ventricular myocyte; design: ca sol conc 1.8 mM, temp 20-22 C
[15] = biological target: T3, Voltage-dependent L-type calcium channel subunit alpha-1C; experiment: as §3; type: functional, cell-based, HEK293; design: ca sol conc 10 mM, temp room
[16] = biological target: T3, Voltage-dependent L-type calcium channel subunit alpha-1C; experiment: as §4; type: functional, cell-based; design: ca sol conc 0 mM, temp room; remark: listed apart in the source
[17] = biological target: T3, Voltage-dependent L-type calcium channel subunit alpha-1C; experiment: as §3; type: functional, cell-based, HEK293; design: ca sol conc 0 mM, temp room
[18] = biological target: T3, Voltage-dependent L-type calcium channel subunit alpha-1C; experiment: as §3; type: functional, cell-based, HEK293; design: ca sol conc 0 mM, temp room; remark: listed apart in the source
[19] = biological target: T2, Voltage-dependent L-type calcium channel subunit alpha-1C; experiment: as §2; type: functional, cell-based, Heart, Ventricular myocyte; design: ca sol conc 1.8 mM, temp 20-22 C; remark: listed apart in the source
[20] = biological target: T2, Voltage-dependent L-type calcium channel subunit alpha-1C; experiment: as §2; type: functional, cell-based, Heart, Ventricular myocyte; design: ca sol conc 1.8 mM, temp 20-22 C; remark: listed apart in the source
[21] = biological target: T2, Voltage-dependent L-type calcium channel subunit alpha-1C; experiment: as §2; type: functional, cell-based, Heart, Ventricular myocyte; design: ca sol conc 2.5 mM, temp room

Work on `CNCCCN1c2ccccc2CCc2ccccc21` [DESIPRAMINE] yielded an IC50 [1] of 11.7 µM.
`CN(C)CCCC1(c2ccc(F)cc2)OCc2cc(C#N)ccc21` (configuration not stated) [CITALOPRAM] gave an IC50 [1] of 64.5 µM.
Molecule `C=CCN1CCN(CC(C)(C)COC(=O)C2=C(C)NC(C)=C(C(=O)OC)C2c2cccc([N+](=O)[O-])c2)CC1` (configuration not stated) [IGANIDIPINE] has an IC50 [2] of 0.009 µM.
`Cc1c(C)c2c(c(C)c1O)CCC(C)(COc1ccc(CC3SC(=O)NC3=O)cc1)O2` (configuration not stated) [TROGLITAZONE] was tested, and the IC50 [3] was 9.5 µM.
Work on `COc1ccc(CCN(C)CCCC(C#N)(c2cc(OC)c(OC)c(OC)c2)C(C)C)cc1OC` (configuration not stated) [GALLOPAMIL] yielded an IC50 [4] of 0.017 µM.
Work on `CC(C)Cn1c(=O)n(C)c(=O)c2[nH]cnc21` [ISOBUTYLMETHYLXANTHINE] yielded an IC50 [5] of 466 µM.
`Cc1ccc(O)c([C@H](CCN(C(C)C)C(C)C)c2ccccc2)c1` [TOLTERODINE] was tested, and the IC50 [6] was 0.143 µM.
`CN(C)CCC=C1c2ccccc2CCc2ccccc21` [AMITRIPTYLINE] gave an IC50 [1] of 23.2 µM and an IC50 [7] of 3.75 µM.
Work on `COC(=O)C1=C(C)NC(C)=C(C(=O)O[C@H]2CCN(Cc3ccccc3)C2)[C@H]1c1cccc([N+](=O)[O-])c1` [BARNIDIPINE] yielded an IC50 [8] of 1.2 µM and an IC50 [9] of 3.1 µM.
`c1ccc(C2(c3ccccc3)CC2C2=NCCN2)cc1` (configuration not stated) [CIFENLINE] was tested, and the IC50 [6] was 14 µM, the IC50 [2] was 30 µM and the IC50 [10] was 14.4 µM.
For `COCCOC(=O)C1=C(C)NC(C)=C(C(=O)OC(C)C)C1c1cccc([N+](=O)[O-])c1` (configuration not stated) [NIMODIPINE], the IC50 [11] was 0.3 µM.
`O=c1c(-c2ccc(O)cc2)coc2cc(O)ccc12` [DAIDZEIN] was tested, and the IC50 [12] was 12 µM.
Work on `CCN(CC)CCCC(C)Nc1c2ccc(Cl)cc2nc2ccc(OC)cc12` (configuration not stated) [QUINACRINE] yielded an IC50 [13] of 5.2 µM.
For `Cc1cccc(CCN2CCC(C(=O)c3ccc(NS(C)(=O)=O)cc3)CC2)n1`, the IC50 [14] was 441 µM.
With `O=C1NC(=O)C(c2ccccc2)(c2ccccc2)N1` [PHENYTOIN] the IC50 [15] was 125 µM.
With `COCCOC(=O)C1=C(C)NC(C)=C(C(=O)OC/C=C/c2ccccc2)C1c1cccc([N+](=O)[O-])c1` (configuration not stated) [CILNIDIPINE] the IC50 [9] was 5.3 µM and the IC50 [16] was 12.7 µM.
For `FC(F)(F)C(Cl)Br` (configuration not stated) [HALOTHANE], the IC50 [17] was 14500 µM and the IC50 [18] was 1800 µM.
With `Clc1ccccc1C(c1ccccc1)(c1ccccc1)n1ccnc1` [CLOTRIMAZOLE] the IC50 [6] was 20 µM and the IC50 [5] was 0.59 µM.
With `COc1cc(N)c(Cl)cc1C(=O)NC1CCN(CCCOc2ccc(F)cc2)CC1OC` (configuration not stated) [CISAPRIDE] the IC50 [14] was 16 µM and the IC50 [19] was 46.9 µM.
`CC(C)COCC(CN(Cc1ccccc1)c1ccccc1)N1CCCC1` (configuration not stated) [BEPRIDIL] gave an IC50 [14] of 0.5 µM and an IC50 [20] of 2.6 µM.
Molecule `O=c1c(-c2ccc(O)cc2)coc2cc(O)cc(O)c12` [GENISTEIN] has an IC50 [21] of 20 µM and an IC50 [12] of 11 µM.
In the case of `CC[C@H](CO)Nc1nc(NCc2ccccc2)c2ncn(C(C)C)c2n1` [SELICICLIB], the IC50 [18] is reported as 23.4 µM.
